Key:
Assay type in all cases: biochemical
EGFR WT = EGFR WT (Homo sapiens (Human), UniProt P00533); assay: HotSpot radiometric kinase assay (Reaction Biology), EGFR WT; conditions: 10 μM ATP
Summary of the method: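 Compounds were preincubated ~20 min with kinase/substrate in pH 7.5 Hepes buffer (MgCl2, EGTA, Brij35, BSA, Na3VO4, DTT, 1% DMSO), then ATP plus 33P-ATP was added to 10 μM final. After 120 min at room temperature, reactions were spotted on P81 filters and washed; IC50 values came from curve fits.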

EGFR Δ746-750 mutant = EGFR Δ746-750 mutant (Homo sapiens (Human), UniProt P00533, DEL746-750); assay: HotSpot radiometric kinase assay, EGFR Δ746-750 mutant; conditions: 10 μM ATP
EGFR Δ746-750 mutant, sequence (P00533 other isoform, or with tags, fused parts or gaps del 1-668/del 746-750 limits assumed): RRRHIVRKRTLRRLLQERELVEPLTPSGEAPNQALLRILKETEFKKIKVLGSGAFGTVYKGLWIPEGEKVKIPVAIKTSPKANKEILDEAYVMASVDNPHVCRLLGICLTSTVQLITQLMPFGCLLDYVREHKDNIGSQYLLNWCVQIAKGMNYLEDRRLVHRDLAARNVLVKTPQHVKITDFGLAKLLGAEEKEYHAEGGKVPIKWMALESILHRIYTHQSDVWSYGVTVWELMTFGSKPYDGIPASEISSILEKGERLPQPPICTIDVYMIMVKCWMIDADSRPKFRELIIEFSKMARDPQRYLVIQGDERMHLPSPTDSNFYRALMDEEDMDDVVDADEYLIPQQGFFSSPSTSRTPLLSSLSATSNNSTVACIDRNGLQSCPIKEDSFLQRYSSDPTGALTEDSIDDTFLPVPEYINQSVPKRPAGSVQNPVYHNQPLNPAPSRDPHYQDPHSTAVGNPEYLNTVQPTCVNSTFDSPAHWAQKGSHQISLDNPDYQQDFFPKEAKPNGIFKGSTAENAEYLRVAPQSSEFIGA
Summary of the method: (§1)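 Radiometric filter-binding read-out: incorporated 33P was retained on P81 ion-exchange paper after washing away unbound phosphate. Reactions ran 120 min at room temperature with 10 μM final ATP, following ~20 min compound preincubation in Hepes pH 7.5 buffer containing 1% DMSO. IC50 from fitted curves.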

[1] = target: EGFR Δ746-750/C797S mutant (Homo sapiens (Human), UniProt P00533, C797S/DEL746-750); assay: HotSpot radiometric kinase assay, EGFR Δ746-750/C797S mutant; conditions: 10 μM ATP
Summary of the method: as §1

EGFR L858R mutant = EGFR L858R mutant (Homo sapiens (Human), UniProt P00533, L858R); assay: HotSpot radiometric kinase assay, EGFR L858R mutant; conditions: 10 μM ATP
EGFR L858R mutant, sequence (P00533 25-1210 L858R): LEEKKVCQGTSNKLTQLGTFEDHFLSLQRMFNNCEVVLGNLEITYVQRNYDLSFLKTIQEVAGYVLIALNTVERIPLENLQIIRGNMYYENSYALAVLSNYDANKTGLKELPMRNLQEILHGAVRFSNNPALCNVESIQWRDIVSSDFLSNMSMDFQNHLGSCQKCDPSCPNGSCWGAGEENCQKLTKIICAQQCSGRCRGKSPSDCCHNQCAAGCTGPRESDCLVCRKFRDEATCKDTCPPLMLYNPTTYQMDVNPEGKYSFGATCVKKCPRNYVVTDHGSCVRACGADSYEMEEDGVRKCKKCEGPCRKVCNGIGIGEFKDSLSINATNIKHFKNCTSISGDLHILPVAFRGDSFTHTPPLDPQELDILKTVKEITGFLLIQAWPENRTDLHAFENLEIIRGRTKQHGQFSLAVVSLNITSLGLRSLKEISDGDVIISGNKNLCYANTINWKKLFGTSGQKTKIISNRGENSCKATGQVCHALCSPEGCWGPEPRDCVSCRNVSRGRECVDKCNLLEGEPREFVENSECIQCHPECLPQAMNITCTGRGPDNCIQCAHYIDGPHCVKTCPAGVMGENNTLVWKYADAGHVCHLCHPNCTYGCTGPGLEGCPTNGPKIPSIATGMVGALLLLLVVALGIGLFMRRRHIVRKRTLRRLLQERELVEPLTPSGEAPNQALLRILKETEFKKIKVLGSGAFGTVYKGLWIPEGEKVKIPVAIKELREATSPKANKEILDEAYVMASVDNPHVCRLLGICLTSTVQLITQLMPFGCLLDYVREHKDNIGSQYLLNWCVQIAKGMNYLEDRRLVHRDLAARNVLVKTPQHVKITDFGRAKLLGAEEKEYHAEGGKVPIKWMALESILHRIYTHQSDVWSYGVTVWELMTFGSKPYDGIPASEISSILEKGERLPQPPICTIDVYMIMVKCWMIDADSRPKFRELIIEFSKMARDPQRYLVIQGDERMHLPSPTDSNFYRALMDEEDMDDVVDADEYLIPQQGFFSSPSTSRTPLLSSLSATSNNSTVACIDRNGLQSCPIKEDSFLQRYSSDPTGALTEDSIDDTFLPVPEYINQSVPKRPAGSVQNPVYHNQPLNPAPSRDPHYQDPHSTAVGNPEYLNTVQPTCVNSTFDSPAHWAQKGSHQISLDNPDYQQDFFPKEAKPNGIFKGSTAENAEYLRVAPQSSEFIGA
Summary of the method: as §1

EGFR (D770_N771insNPG) = EGFR (D770_N771insNPG) (Homo sapiens (Human), UniProt P00533, INS770NPG); assay: HotSpot radiometric kinase assay, EGFR (D770_N771insNPG); conditions: 10 μM ATP, read-out: EGFR (Δ770_N771insNPG) IC50
EGFR (D770_N771insNPG), sequence (P00533 other isoform, or with tags, fused parts or gaps del 1-668/ins NPG behind 770 limits assumed): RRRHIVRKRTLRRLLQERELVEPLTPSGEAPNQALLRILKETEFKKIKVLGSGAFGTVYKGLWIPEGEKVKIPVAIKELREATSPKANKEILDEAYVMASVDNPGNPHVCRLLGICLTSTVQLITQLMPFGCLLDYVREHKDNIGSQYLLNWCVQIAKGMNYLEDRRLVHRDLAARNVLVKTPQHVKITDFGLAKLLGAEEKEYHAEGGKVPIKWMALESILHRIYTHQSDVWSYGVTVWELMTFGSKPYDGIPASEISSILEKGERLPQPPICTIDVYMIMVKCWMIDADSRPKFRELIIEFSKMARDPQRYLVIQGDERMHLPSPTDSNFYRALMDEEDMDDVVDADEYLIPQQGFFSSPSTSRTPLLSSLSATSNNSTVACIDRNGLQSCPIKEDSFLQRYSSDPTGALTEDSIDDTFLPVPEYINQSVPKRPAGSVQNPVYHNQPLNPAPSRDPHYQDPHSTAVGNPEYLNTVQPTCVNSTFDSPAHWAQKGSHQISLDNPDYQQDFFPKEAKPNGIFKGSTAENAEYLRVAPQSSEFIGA
Summary of the method: as §1

[2] = target: EGFR L858R/T790M/C797S mutant (Homo sapiens (Human), UniProt P00533, C797S/L858R/T790M); assay: HotSpot radiometric kinase assay, EGFR L858R/T790M/C797S mutant; conditions: 10 μM ATP
EGFR L858R/T790M/C797S mutant, sequence (P00533 25-1210 T790M/C797S/L858R): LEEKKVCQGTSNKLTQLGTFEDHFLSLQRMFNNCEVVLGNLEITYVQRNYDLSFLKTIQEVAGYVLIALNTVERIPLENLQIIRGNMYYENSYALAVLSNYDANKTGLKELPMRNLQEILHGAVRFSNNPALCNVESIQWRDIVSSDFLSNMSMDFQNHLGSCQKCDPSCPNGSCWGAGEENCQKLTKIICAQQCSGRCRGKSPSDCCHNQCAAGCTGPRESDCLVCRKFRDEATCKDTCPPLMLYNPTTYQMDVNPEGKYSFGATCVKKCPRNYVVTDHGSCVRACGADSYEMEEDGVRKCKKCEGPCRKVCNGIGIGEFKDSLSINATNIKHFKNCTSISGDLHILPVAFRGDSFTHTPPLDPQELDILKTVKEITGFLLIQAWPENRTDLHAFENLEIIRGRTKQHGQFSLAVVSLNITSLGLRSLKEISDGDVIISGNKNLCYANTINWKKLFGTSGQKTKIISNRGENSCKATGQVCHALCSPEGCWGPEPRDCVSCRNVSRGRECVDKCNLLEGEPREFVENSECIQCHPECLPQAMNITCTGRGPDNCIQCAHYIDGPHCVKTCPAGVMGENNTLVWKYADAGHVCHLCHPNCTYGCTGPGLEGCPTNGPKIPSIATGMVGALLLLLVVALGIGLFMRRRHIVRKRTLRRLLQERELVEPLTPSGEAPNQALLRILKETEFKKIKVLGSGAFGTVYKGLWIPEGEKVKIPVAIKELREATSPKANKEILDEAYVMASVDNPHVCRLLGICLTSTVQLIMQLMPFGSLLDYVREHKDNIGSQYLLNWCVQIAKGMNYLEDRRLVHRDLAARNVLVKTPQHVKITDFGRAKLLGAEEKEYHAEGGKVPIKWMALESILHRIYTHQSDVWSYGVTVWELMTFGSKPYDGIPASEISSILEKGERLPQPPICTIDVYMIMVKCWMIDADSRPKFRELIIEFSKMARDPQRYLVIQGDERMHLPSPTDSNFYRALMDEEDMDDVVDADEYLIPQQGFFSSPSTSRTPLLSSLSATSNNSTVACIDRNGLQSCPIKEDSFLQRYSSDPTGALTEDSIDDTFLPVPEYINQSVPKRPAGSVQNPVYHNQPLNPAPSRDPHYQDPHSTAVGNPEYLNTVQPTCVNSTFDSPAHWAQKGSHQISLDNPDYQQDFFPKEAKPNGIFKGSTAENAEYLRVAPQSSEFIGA
Summary of the method: as §1

EGFR L858R/T790M mutant = EGFR L858R/T790M mutant (Homo sapiens (Human), UniProt P00533, L858R/T790M); assay: HotSpot radiometric kinase assay, EGFR L858R/T790M mutant; conditions: 10 μM ATP
Summary of the method: as §1

EGFR WT, sequence (P00533 25-1210): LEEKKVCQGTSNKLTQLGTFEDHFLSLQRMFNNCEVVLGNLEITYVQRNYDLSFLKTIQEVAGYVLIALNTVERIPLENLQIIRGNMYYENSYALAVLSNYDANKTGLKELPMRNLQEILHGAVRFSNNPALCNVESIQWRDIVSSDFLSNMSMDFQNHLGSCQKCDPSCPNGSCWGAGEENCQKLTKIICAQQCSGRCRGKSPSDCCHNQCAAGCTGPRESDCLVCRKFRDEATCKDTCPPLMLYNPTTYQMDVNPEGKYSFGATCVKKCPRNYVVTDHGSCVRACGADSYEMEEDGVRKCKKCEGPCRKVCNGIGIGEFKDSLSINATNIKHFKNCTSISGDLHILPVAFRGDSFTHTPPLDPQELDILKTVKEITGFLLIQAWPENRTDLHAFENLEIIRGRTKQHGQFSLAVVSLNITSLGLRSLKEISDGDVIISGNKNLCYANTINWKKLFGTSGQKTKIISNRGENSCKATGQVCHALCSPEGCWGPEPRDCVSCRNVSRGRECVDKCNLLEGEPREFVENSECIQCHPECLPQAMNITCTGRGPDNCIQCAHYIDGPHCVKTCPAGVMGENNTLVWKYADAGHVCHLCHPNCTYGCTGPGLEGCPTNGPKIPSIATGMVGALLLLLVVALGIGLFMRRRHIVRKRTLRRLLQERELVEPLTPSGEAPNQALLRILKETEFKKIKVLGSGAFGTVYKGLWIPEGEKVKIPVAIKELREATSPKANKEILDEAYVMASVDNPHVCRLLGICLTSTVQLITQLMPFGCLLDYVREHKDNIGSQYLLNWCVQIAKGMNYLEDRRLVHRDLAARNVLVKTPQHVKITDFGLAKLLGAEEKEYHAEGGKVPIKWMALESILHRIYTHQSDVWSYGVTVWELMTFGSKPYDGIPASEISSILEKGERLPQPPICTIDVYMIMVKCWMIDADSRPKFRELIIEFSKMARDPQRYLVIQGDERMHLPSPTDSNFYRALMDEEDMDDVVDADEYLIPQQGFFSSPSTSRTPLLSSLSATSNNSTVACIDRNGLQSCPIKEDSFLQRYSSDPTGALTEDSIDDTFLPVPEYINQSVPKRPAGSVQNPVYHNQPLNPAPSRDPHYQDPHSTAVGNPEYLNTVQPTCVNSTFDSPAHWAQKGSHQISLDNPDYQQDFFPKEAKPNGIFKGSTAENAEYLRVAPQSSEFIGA

CN1CCN(Cc2ccc3c(c2)O[C@@H]2CCN(CCOc4c(cnn4C)-c4ccc5[nH]nc(c5c4)/C=C/3)C2=O)CC1 [Example 92, (10R,16E)-3-methyl-13-[(4-methylpiperazin-1-yl)methyl]-3,5,6,9,10,19-hexahydro-8H-20,22-etheno-7,10-methanodipyrazolo[3,4-i:4′,3′-m][1,8,5]benzodioxazacyclooctadecin-25-one]
IC50 (EGFR WT): 14.5 nM
IC50 (EGFR Δ746-750 mutant): 7.95 nM
IC50 [1]: 6.65 nM
IC50 (EGFR L858R mutant): 4.1 nM
IC50 (EGFR (D770_N771insNPG)): 6.34 nM
IC50 [2]: 3.26 nM
IC50 (EGFR L858R/T790M mutant): 0.41 nM

Cc1nn(CCO)c2c1/C=C/c1n[nH]c3ccc(cc13)-c1c(C)nn(C)c1O[C@@H](C)CN(C)C2 [Example 138, 2-[(10S,17E)-6,8,10,12,16-pentamethyl-2,8,10,11,12,13-hexahydro-14H-3,5-ethenotripyrazolo[3,4-f:3′,4′-j:4″,3″-n][1,4]oxazacyclopentadecin-14-yl]ethan-1-o]
IC50 (EGFR WT): 23.8 nM
IC50 (EGFR Δ746-750 mutant): 3.64 nM
IC50 [1]: 1.4 nM
IC50 (EGFR L858R mutant): 3.5 nM
IC50 (EGFR (D770_N771insNPG)): 85.2 nM
IC50 [2]: 0.55 nM
IC50 (EGFR L858R/T790M mutant): 0.61 nM

Cc1nn([C@H]2CC[C@@H]2O)c2c1/C=C/c1n[nH]c3ccc(cc13)-c1cnn(C)c1OCCCO2 (racemic) [Example 78, (rac)-2-[(17E)-8,16-dimethyl-2,8,11,12-tetrahydro-10H,14H-3,5-etheno[1,5]dioxacyclopentadecino[10,11-c:15,14-c′:6,7-c″ ]tripyrazol-14-yl]cyclobutan-1-ol]
IC50 (EGFR WT): > 1000 nM
IC50 (EGFR Δ746-750 mutant): 212 nM
IC50 [1]: 775 nM
IC50 (EGFR L858R mutant): 688 nM
IC50 (EGFR (D770_N771insNPG)): 910 nM
IC50 [2]: 296 nM
IC50 (EGFR L858R/T790M mutant): 206 nM

Cc1c2c(nn1C[C@@H](C)O)CN(C)C[C@H](C)Oc1c(cnn1C)-c1ccc3[nH]nc(c3c1)/C=C/2 [Example 128, (2R)-1-[(10S,17E)-8,10,12,16-tetramethyl-2,8,10,11,12,13-hexahydro-15H-3,5-ethenotripyrazolo[3,4-f:3′,4′-j:4″,3″-n][1,4]oxazacyclopentadecin-15-yl]propan-2-ol]
IC50 (EGFR WT): 264 nM
IC50 (EGFR Δ746-750 mutant): 33.7 nM
IC50 [1]: 15.2 nM
IC50 (EGFR L858R mutant): 21.9 nM
IC50 (EGFR (D770_N771insNPG)): 383 nM
IC50 [2]: 1.01 nM
IC50 (EGFR L858R/T790M mutant): 0.77 nM

CCN1Cc2c(c(C)nn2CCO)/C=C/c2n[nH]c3ccc(cc23)-c2cnn(C)c2O[C@@H](C)C1 [Example 133, v2-[(10S,17E)-12-ethyl-8,10,16-trimethyl-2,8,10,11,12,13-hexahydro-14H-3,5-ethenotripyrazolo[3,4-f:3′,4′-j:4″,3″-n][1,4]oxazacyclopentadecin-14-yl]ethan-1-ol]
IC50 (EGFR WT): 0.54 nM
IC50 (EGFR Δ746-750 mutant): 0.12 nM
IC50 [1]: 0.35 nM
IC50 (EGFR L858R mutant): 0.09 nM
IC50 (EGFR (D770_N771insNPG)): 1.62 nM
IC50 [2]: 0.24 nM
IC50 (EGFR L858R/T790M mutant): 0.07 nM

C[C@H]1CN(C)Cc2c(c(O[C@H]3CCN(S(C)(=O)=O)C3)nn2CCO)/C=C/c2n[nH]c3ccc(cc23)-c2cnn(C)c2O1 [Example 182, 2-[(10S,17E)-16-{[(3S)-1-(methanesulfonyl)pyrrolidin-3-yl]oxy}-8,10,12-trimethyl-2,8,10,11,12,13-hexahydro-14H-3,5-ethenotripyrazolo[3,4-f:3′,4′-j:4″,3″- n][1,4]oxazacyclopentadecin-14-yl]ethan-1-ol]
IC50 (EGFR WT): 139 nM
IC50 (EGFR Δ746-750 mutant): 24 nM
IC50 [1]: 6.6 nM
IC50 (EGFR L858R mutant): 24.7 nM
IC50 (EGFR (D770_N771insNPG)): 300 nM
IC50 [2]: 1.37 nM
IC50 (EGFR L858R/T790M mutant): 0.54 nM

Cc1nn([C@H]2CNC[C@@H]2O)c2c1/C=C/c1n[nH]c3ccc(cc13)-c1cnn(C)c1OCCCO2 (racemic) [Example 74, (rac)-4-[(17E)-8,16-dimethyl-2,8,11,12-tetrahydro-10H,14H-3,5-etheno[1,5]dioxacyclopentadecino[10,11-c:15,14-c′:6,7-c″ ]tripyrazol-14-yl]pyrrolidin-3-ol]
IC50 (EGFR WT): 86 nM
IC50 (EGFR Δ746-750 mutant): 74.1 nM
IC50 [1]: 39.8 nM
IC50 (EGFR L858R mutant): 36.1 nM
IC50 (EGFR (D770_N771insNPG)): 109 nM
IC50 [2]: 15.8 nM
IC50 (EGFR L858R/T790M mutant): 12.5 nM

Cc1c2c(nn1CCO)OCCOC(C)c1c(cnn1C)-c1ccc3[nH]nc(c3c1)/C=C/2 (stereo not shown) [Example 79, 2-[(17E)-8,9,16-trimethyl-8,9,11,12-tetrahydro-3,5-etheno[1,4]dioxacyclopentadecino[11,10-c:15,14-c′:6,7-c″ ]tripyrazol-15(2H)-yl]ethan-1-ol]
IC50 (EGFR WT): 1910 nM
IC50 (EGFR Δ746-750 mutant): 596 nM
IC50 [1]: 284 nM
IC50 (EGFR L858R mutant): 526 nM
IC50 (EGFR (D770_N771insNPG)): 951 nM
IC50 [2]: 67.7 nM
IC50 (EGFR L858R/T790M mutant): 57.1 nM

CC(C)Oc1nn([C@@H](C)CO)c2c1/C=C/c1n[nH]c3ccc(cc13)-c1cnn(C)c1O[C@H](C)CN(C(C)C)C2 [Example 207, (2S)-2-{(10R,17E)-8,10-dimethyl-12-(propan-2-yl)-16-[(propan-2-yl)oxy]-2,8,10,11,12,13-hexahydro-14H-3,5-ethenotripyrazolo[3,4-f:3′,4′-j:4″,3″- n][1,4]oxazacyclopentadecin-14-yl}propan-1-ol]
IC50 (EGFR WT): > 1000 nM
IC50 (EGFR Δ746-750 mutant): > 1000 nM
IC50 [1]: > 1000 nM
IC50 (EGFR L858R mutant): > 1000 nM
IC50 (EGFR (D770_N771insNPG)): > 1000 nM
IC50 [2]: > 1000 nM
IC50 (EGFR L858R/T790M mutant): > 1000 nM

Cc1nn([C@H]2CCN(C)C[C@@H]2O)c2c1/C=C/c1n[nH]c3ccc(cc13)-c1cnn(C)c1OCCCO2 (racemic) [Example 82, (rac)-4-[(17E)-8,16-dimethyl-2,8,11,12-tetrahydro-10H,14H-3,5-etheno[1,5]dioxacyclopentadecino[10,11-c:15,14-c′:6,7-c′]tripyrazol-14-yl]-1-methylpiperidin-3-ol]
IC50 (EGFR WT): 67.8 nM
IC50 (EGFR Δ746-750 mutant): 27.9 nM
IC50 [1]: 29.8 nM
IC50 (EGFR L858R mutant): 15.3 nM
IC50 (EGFR (D770_N771insNPG)): 56.7 nM
IC50 [2]: 5.77 nM
IC50 (EGFR L858R/T790M mutant): 1.24 nM

CCN1CCOc2c(c(C)nn2C)/C=C/c2n[nH]c3ccc(cc23)-c2cnn(C)c2C1 [Example 111, (17E)-10-ethyl-8,14,16-trimethyl-2,9,10,11,12,14-hexahydro-8H-3,5-ethenotripyrazolo[3,4-f:4′,3′-j:4″,3″-n][1,4]oxazacyclopentadecine]
IC50 (EGFR WT): 63.3 nM
IC50 (EGFR Δ746-750 mutant): 3.29 nM
IC50 [1]: 9.18 nM
IC50 (EGFR L858R mutant): 8.04 nM
IC50 (EGFR (D770_N771insNPG)): 16.8 nM
IC50 [2]: 1.91 nM
IC50 (EGFR L858R/T790M mutant): 0.39 nM

Cc1c2c(nn1[C@H]1C[C@@H](NCCN(C)C)C1)OCCCOc1c(cnn1C)-c1ccc3[nH]nc(c3c1)/C=C/2 [Example 107, N^2-{(1s,3s)-3-[(17E)-8,16-dimethyl-2,8,11,12-tetrahydro-10H,15H-3,5-etheno[1,5]dioxacyclopentadecino[10,11-c:15,14-c′:6,7-c″]tripyrazol-15-yl]cyclobutyl}-N^1,N^1-dimethylethane-1,2-diamine]
IC50 (EGFR WT): 41.9 nM
IC50 (EGFR Δ746-750 mutant): 34.1 nM
IC50 [1]: 42.2 nM
IC50 (EGFR L858R mutant): 13.6 nM
IC50 (EGFR (D770_N771insNPG)): 66.5 nM
IC50 [2]: 11.3 nM
IC50 (EGFR L858R/T790M mutant): 2.28 nM

CCOc1nn(CCO)c2c1/C=C/c1n[nH]c3ccc(cc13)-c1c(C)nn(C)c1OC[C@H](C)N(C1CC1)C2 [Example 205, 2-[(11S,17E)-12-cyclopropyl-16-ethoxy-6,8,11-trimethyl-2,8,10,11,12,13-hexahydro-14H-3,5-ethenotripyrazolo[3,4-f:3′,4′-j:4″,3″- n][1,4]oxazacyclopentadecin-14-yl]ethan-1-ol]
IC50 (EGFR WT): 58.3 nM
IC50 (EGFR Δ746-750 mutant): 5.17 nM
IC50 [1]: 1.42 nM
IC50 (EGFR L858R mutant): 16.3 nM
IC50 (EGFR (D770_N771insNPG)): 137 nM
IC50 [2]: 1.13 nM
IC50 (EGFR L858R/T790M mutant): 1 nM
